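96-well plates; 48 h exposure; 5 concentrations. Endpoints by linear interpolation between flanking doses. Not reached: highest tested concentration assigned. At the GI50, growth is halved.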 Active and inactive are the calls of the source. Rule as the data show it: active = GI50 up to about 1.1 µM and inactive = higher.
Assays:
Experiment in all cases: NCI tumour cell line growth inhibition, 48 h
RXF 393 = system: RXF 393
U-251 = system: U-251
RPMI-8226 = system: RPMI-8226
HT-29 = system: HT-29
ACHN = system: ACHN
UO-31 = system: UO-31
TK-10 = system: TK-10
HCT-15 = system: HCT-15
MDA-MB-435 = system: MDA-MB-435
A549 = system: A549
NCI/ADR-RES = system: NCI/ADR-RES
SF-268 = system: SF-268
MDA-MB-231 = system: MDA-MB-231
M14 = system: M14
NCI-H460 = system: NCI-H460
UACC-62 = system: UACC-62
EKVX = system: EKVX
OVCAR-4 = system: OVCAR-4
SK-MEL-5 = system: SK-MEL-5
T47D = system: T47D

Row | SMILES | GI50 (RXF 393) | GI50 (U-251) | GI50 (RPMI-8226) | GI50 (HT-29) | GI50 (ACHN) | GI50 (UO-31) | GI50 (TK-10) | GI50 (HCT-15) [µM] | GI50 (MDA-MB-435) | GI50 (A549) | GI50 (NCI/ADR-RES) | GI50 (SF-268) | GI50 (MDA-MB-231) | GI50 (M14) | GI50 (NCI-H460) | GI50 (UACC-62) | GI50 (EKVX) | GI50 (OVCAR-4) | GI50 (SK-MEL-5) | GI50 (T47D)
1 | NS(=O)(=O)c1nnc(NS(=O)(=O)C(F)(F)F)s1 | > 100 µM (inactive) | > 100 µM (inactive) | > 100 µM (inactive) | > 100 µM (inactive) | > 100 µM (inactive) | > 100 µM (inactive) | > 100 µM (inactive) | > 100 | > 100 µM (inactive) | > 100 µM (inactive) | > 100 µM (inactive) | > 100 µM (inactive) | > 100 µM (inactive) | > 100 µM (inactive) | > 100 µM (inactive) | > 100 µM (inactive) | > 100 µM (inactive) | > 100 µM (inactive) | – | –
2 | CC1(C)Oc2ccc3c(=O)c(-c4ccccc4)c(-c4ccccc4)oc3c2C1C(=O)O (stereo not drawn) | > 100 µM (inactive) | > 100 µM (inactive) | – | > 100 µM (inactive) | – | – | > 100 µM (inactive) | 33.3 | > 100 µM (inactive) | > 100 µM (inactive) | > 100 µM (inactive) | > 100 µM (inactive) | > 100 µM (inactive) | > 100 µM (inactive) | – | > 100 µM (inactive) | > 100 µM (inactive) | 77.1 µM (inactive) | > 100 µM (inactive) | > 100 µM (inactive)
3 | CN(C(=O)Cc1ccccc1)n1cnn(CC(=O)OC(C)(C)C)c1=S | – | > 10 µM (inactive) | > 10 µM (inactive) | > 10 µM (inactive) | > 10 µM (inactive) | > 10 µM (inactive) | > 10 µM (inactive) | > 10 | > 10 µM (inactive) | > 10 µM (inactive) | > 10 µM (inactive) | > 10 µM (inactive) | > 10 µM (inactive) | > 10 µM (inactive) | > 10 µM (inactive) | > 10 µM (inactive) | > 10 µM (inactive) | > 10 µM (inactive) | > 10 µM (inactive) | > 10 µM (inactive)
4 | Cc1n[nH]c(=O)n1N1C(=O)CCCC1=O | > 100 µM (inactive) | > 100 µM (inactive) | – | > 100 µM (inactive) | – | – | > 100 µM (inactive) | – | > 100 µM (inactive) | > 100 µM (inactive) | > 100 µM (inactive) | > 100 µM (inactive) | > 100 µM (inactive) | > 100 µM (inactive) | – | > 100 µM (inactive) | > 100 µM (inactive) | – | > 100 µM (inactive) | > 100 µM (inactive)
5 | CC1CN=C(N(C(=O)Nc2ccccc2)c2ccc(Cl)c(Cl)c2)S1 (stereo not drawn) | – | > 10 µM (inactive) | 41.3 µM (inactive) | 16.1 µM (inactive) | 31.6 µM (inactive) | 24.8 µM (inactive) | 28.2 µM (inactive) | 23.2 | – | 25.9 µM (inactive) | 20.7 µM (inactive) | 61 µM (inactive) | 18.2 µM (inactive) | 38.7 µM (inactive) | 19.3 µM (inactive) | – | 23.3 µM (inactive) | 75.3 µM (inactive) | 18.5 µM (inactive) | 14.4 µM (inactive)
6 | COc1ccc2c(c1)C(=O)C1CCC(=O)N1C2c1ccc2c(c1)OCO2 (stereo not drawn) | – | 15.2 µM (inactive) | 2.91 µM (inactive) | 4.12 µM (inactive) | 12.1 µM (inactive) | 10.6 µM (inactive) | 30.8 µM (inactive) | 12.2 | 6.21 µM (inactive) | 21 µM (inactive) | 22.7 µM (inactive) | 13.6 µM (inactive) | 12.2 µM (inactive) | 12.9 µM (inactive) | 23.9 µM (inactive) | 13.6 µM (inactive) | 20.3 µM (inactive) | 25.4 µM (inactive) | 11.4 µM (inactive) | 14.2 µM (inactive)
7 | CC1(C)S[C@@H]2[C@H](NC(=O)[C@H](N)c3ccccc3)C(=O)N2[C@H]1C(=O)O [AMPICILLIN] | – | > 100 µM (inactive) | > 100 µM (inactive) | > 100 µM (inactive) | > 100 µM (inactive) | > 100 µM (inactive) | > 100 µM (inactive) | > 100 | > 100 µM (inactive) | > 100 µM (inactive) | > 100 µM (inactive) | > 100 µM (inactive) | > 100 µM (inactive) | > 100 µM (inactive) | > 100 µM (inactive) | > 100 µM (inactive) | > 100 µM (inactive) | – | > 100 µM (inactive) | > 100 µM (inactive)
8 | CC12CC(C/C1=N/O)C(C)(C)C2 (stereo not drawn) | > 100 µM (inactive) | > 100 µM (inactive) | – | > 100 µM (inactive) | > 100 µM (inactive) | > 100 µM (inactive) | > 100 µM (inactive) | – | > 100 µM (inactive) | > 100 µM (inactive) | – | > 100 µM (inactive) | > 100 µM (inactive) | > 100 µM (inactive) | > 100 µM (inactive) | > 100 µM (inactive) | > 100 µM (inactive) | > 100 µM (inactive) | > 100 µM (inactive) | > 100 µM (inactive)

Source: ChEMBL document CHEMBL1201862, “PubChem BioAssay data set” (2004)
